Where a name gives a salt, the structure may show the parent alone.
What was measured:
MIA PaCa-2 cells = test: Cytotoxicity of Gem-ARA, MTT assay, MIA PaCa-2 cells; assay type: cell-based, human; conditions: Homo sapiens, up to 72 h, mean ± SD (n>3)
Procedure: (§1) To understand the effect of the omega-3 polyunsaturated fatty acid nature of the DHA (i.e., the docosahexaedecanoyl group) in the Gem-DHA on its cytotoxicity against tumor cells, gemcitabine was also conjugated to arachidonic acid, an omega-6 polyunsaturated fatty acid, to synthesize 4-(N)-arachidonyl gemcitabine (Gem-ARA) (FIG. 4). Human pancreatic cancer cells (MIA PaCa-2 or BxPC-3) were seeded (3,000/well) in 96-well plates. After overnight incubation, cells were treated with various concentrations of gemcitabine HCl or Gem-ARA at 37° C., 5% CO2 for up to 72 h. Gemcitabine HCl was dissolved in phosphate buffered saline (PBS, pH 7.4, 10 mM), and Gem-ARA was dissolved in DMSO. The maximum amount of DMSO added per well was 0.9 μL, which was found non-toxic. The number of viable cells after the incubation was determined using an MTT assay as described above. The 50% inhibition concentration (IC50) values were estimated using GraphPad prism 5 parameters curve fittings.

BxPC-3 cells [1] = test: Cytotoxicity of Gem-ARA, MTT assay, BxPC-3 cells; assay type: cell-based, human; conditions: Homo sapiens, up to 72 h, mean ± SD (n>3)
Procedure: as §1

BxPC-3 cells [2] = test: Anti-proliferative activity, MTT assay, BxPC-3 cells; assay type: cell-based, human; conditions: Homo sapiens; BxPC-3 cells, 72 h
Procedure: (§2) The anti-proliferative activity of Gem-DHA was evaluated in Panc-02, TC-1, Panc-1-Luc, and BxPC-3 cell lines. For Panc-02 and TC-1 cells, cells (1,500/well for Panc-02 and 3,000/well for TC-1) were seeded in 96-well plates and incubated at 37° C. and 5% CO2 overnight. The cells were then treated with various concentrations of Gem-DHA or other compounds for 24 h. For BxPC-3 and Panc-1-Luc cells, 3,000 and 1,000 cells/well were used, respectively, and cells were co-incubated with the Gem-DHA for 72 h. Cell viability was determined using an MTT assay as previously described (Naguib YW et al. Mol Pharm. 2014, 11(4), 1239-1249). Gemcitabine HCl was dissolved in cell culture medium, whereas Gem-DHA and DHA were dissolved in dimethylsulfoxide (DMSO). The values of IC50 were calculated using GraphPad Prism (GraphPad software, Inc., La Jolla, CA).

Panc-1-Luc tumors [3] = test: Orthotopic Panc-1-Luc tumors in nude mice: gemcitabine HCl versus mixture with DHA; assay type: in vivo; conditions: about 0.11 mmole/kg each, twice a week, 10 times, started 2 weeks after implantation
Procedure: The doses of both gemcitabine HCl (˜33.7 mg/kg) and DHA (˜35.3 mg/kg) were about 0.11 mmole/kg. Mice were sacrificed in the 8th week after tumor implantation, and the tumors were excised and weighed. The doses were based on the average weight of mice in the same group on the day of injection, and were adjusted only if the weight of an individual mouse was above or below 10% of the average weight.

[4] = design: species or system BALB/c mice; conditions: female, BALB/c, mouse, in vivo, iv, 75 mg/kg, 1 h
Procedure: The biodistribution of Gem-DHA was further evaluated in healthy BALB/c mice. Briefly, female BALB/c mice (Charles River, 14-16 weeks, n=3) were injected via the tail vein with Gem-DHA in a Tween 80/ethanol/water solution containing 5% (w/v) mannitol at a dose of 75 mg/kg. After 1 h, mice were euthanized to collect pancreas, lung, spleen, liver, heart, and kidneys. Gem-DHA was extracted from the samples and analyzed using HPLC. As a control, mice (n=3) were also injected with gemcitabine HCl (75 mg/kg) in 5% (w/v) mannitol solution and euthanized 1 h later to collect their pancreas. Gemcitabine was extracted using the following method. Briefly, once the pancreas was collected, it was weighed, placed into 0.25 ml of PBS containing 40 μg of tetrahydrouridine (a deoxycytidine deaminase inhibitor) and homogenized using a bead beater. Deoxyuridine (dU, 20 μl of 20 μg/ml) was then added into the homogenate as an internal standard. Acetonitrile was used to precipitate the proteins twice, and gemcitabine content in the supernatant was analyzed using HPLC. […] Therefore, it appeared that Gem-DHA preferred to distribute in pancreatic tissues.

Panc-02 tumor cells = test: Cytotoxicity after 4 h co-incubation, MTT test; assay type: cell-based, mouse; conditions: Panc-02 cells, at concentrations of more than 80 μM
Procedure: The mechanisms underlying the cytotoxicity of the Gem-DHA may be different from that of gemcitabine. For example, in cell culture studies, Panc-02 cells were seeded into 96-well plates (1,500 cells per well) and incubated at 37° C., 5% CO2 for 24 h. They were then co-incubated with various concentrations of Gem-DHA, gemcitabine HCl alone, or DHA alone for 4 h, and cell viability was determined using an MTT test.

[5] = biological target: deoxycytidinedeaminases (dCDA) (Homo sapiens, UniProt P32320); conditions: upon injection, extracellularly and intracellularly; cited from earlier work
[6] = test system: advanced pancreatic cancer; conditions: cited from earlier work
Panc-02 cells = test: Anti-proliferative activity, MTT assay, Panc-02 cells; assay type: cell-based; conditions: Mus musculus, Panc02, 24 h
Procedure: as §2

Panc-1-Luc tumors [7] = test: Antitumor activity against orthotopic Panc-1-Luc tumors in nude mice, with tumor histology; assay type: in vivo
From the text: Nude mice with intrapancreatically injected Panc-1-Luc human pancreatic cancer cells were used as a mouse model of pancreatic cancer. The National Institutes of Health guidelines for animal use and care were followed Animal protocols were approved by the Institutional Animal Care and Use Committee at the University of Texas at Austin. Panc-1-Luc cells (Muniz VP et al. Mol Cancer Res. 2011, 9(7), 867-877) were implanted orthotopically by injecting 1×10^6 cells into (the tail of) the pancreas.
Panc-1-Luc cell suspension was prepared at a concentration of 2×10^7 per ml in a 1:1 (v/v) mixture of DMEM and Matrigel. Tumor cells were then injected into the pancreas of male athymic nude mice (6-8 weeks, Charles River Laboratories, Wilmington, Mass.) following a surgical procedure (Raut CP et al. Cancer Biol Ther. 2004, 3(12), 1217-1224; Bruns CJ et al. Neoplasia. 1999, 1(1), 50-62). Briefly, after mice were anesthetized using isoflurane, the skin and peritoneum were cut open about 1 cm in length using sterile surgical scalpels. The pancreas was pulled out, and 50 μL of the cell suspension were injected slowly until a small bleb was formed. After the needle was withdrawn, a small cotton plug was applied for 10 s. The pancreas was returned back, the peritoneum was sutured with Monocryl™ bioresorbable sutures (Ethicon, Somerville, N.J.), and the skin was then closed using surgical clips. Mice were s.c. injected with buprenorphine (0.1 mg/kg) as a pain killer and were left to heal for one week. Tumor progress was monitored using an IVIS™ Spectrum imaging system (Caliper, Hopkinton, MA). For IVIS imaging, each mouse was i.p. injected with a luciferin solution (15 mg/ml) at a dose of 0.15 mg/g body weight in sterile DPBS, anesthetized with isoflurane, and imaged 10 min after luciferin injection. Four weeks after tumor implantation, mice with tumors were randomized into 3 groups (n=5-7) and intraperitoneally injected (i.p) with Gem-DHA (50 mg/kg, ˜0.087 mmole/kg), gemcitabine HCl (26.1 mg/kg, ˜0.087 mmole/kg), or left untreated. Gem-DHA was in a Tween 80/ethanol/water solution with 5% (w/v) of mannitol, and gemcitabine HCl was in sterile mannitol solution (5%, w/v). Treatments were repeated twice a week for a total 7 doses. Thirty days after the first treatment, mice were sacrificed and tumors were dissected from the pancreas, weighed, and fixed in formalin. The doses were based on the average weight of mice in the same group on the day of injection, and were adjusted only if the weight of an individual mouse was above or below 10% of the average weight.
Tumor tissues were sectioned and stained in the Histology and Tissue Analysis Core at Dell Pediatric Research Institute at the University of Texas at Austin or in the Department of
Molecular Carcinogenesis at the University of Texas M.D. Anderson Cancer Center at Science Park (Smithville, Texas) with hematoxylin & eosin (H&E), antibodies against cleaved lamin-A (apoptosis marker), CD-31 (angiogenesis marker), or Ki-67 (proliferation marker). Slides were then scanned, and images were taken using the ScanScope XT (Aperio Technologies, Vista, CA). […] In addition, several areas of necrosis can also be seen in the centers of the tumors. […] Several pyknotic cells with condensed chromatin can also be seen in tumors in mice that were treated with Gem-DHA.

deoxycytidinedeaminases (dCDA), sequence (P32320 whole entry): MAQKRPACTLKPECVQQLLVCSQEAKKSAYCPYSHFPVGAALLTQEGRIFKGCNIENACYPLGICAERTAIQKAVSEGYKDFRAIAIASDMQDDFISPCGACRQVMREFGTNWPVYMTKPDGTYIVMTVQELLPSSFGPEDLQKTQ

Compound `Nc1ccn([C@@H]2O[C@H](CO)[C@@H](O)C2(F)F)c(=O)n1` [Gemcitabine HCl, 2′, 2′-difluorodeoxycytidine, reference compound] has an IC50 (MIA PaCa-2 cells) of 50.2 ± 3 nM, an IC50 (BxPC-3 cells [1]) of 5.52 ± 4.55 nM and an IC50 (BxPC-3 cells [2]) of 18.5 ± 14.5 nM. The “Control of tumor growth (tumor weight)” value (Panc-1-Luc tumors [3]) was “did not reveal any significant difference”, the “Percent of injected compound recovered in each gram of pancreas” value [4] was 0.07±0.03% and the “Cytotoxicity after 4 h of co-incubation” value (Panc-02 tumor cells) was “did not show any significant cytotoxicity”. The “Fraction deaminated to dFdU” value [5] was “over 90%”, the “Improvement in median survival duration” value ([6]; patients with advanced pancreatic cancer) was 5 week and the 12-month survival ([6]; standard care for advanced pancreatic cancer) was 18%. The IC50 (Panc-02 cells) was 4 ± 1.5 nM, the “Average tumor weight at the end of the study” value (Panc-1-Luc tumors [7]; 30 days after first treatment, versus untreated) was “not significantly different from that in mice that were left untreated” and the “Inhibition of growth of Panc-1-Luc tumors” value (Panc-1-Luc tumors [7]; i.p., ~0.087 mmole/kg (Gem-DHA 50 mg/kg, gemcitabine HCl 26.1 mg/kg), twice a week, 7 doses) was “did not significantly inhibit the growth”. For the same compound, the “Cleaved lamin-A positive staining in tumors” value (Panc-1-Luc tumors [7]; versus untreated mice) was “not different from that in mice that were not treated” and the “Micro-vessel density (MVD) in tumors, anti-CD-31 staining” value (Panc-1-Luc tumors [7]; versus untreated mice) was “not different from that in mice that were not treated”.

Reference: patent US11883423B2, “Nucleobase analogue derivatives and their applications” (BOARD OF REGENTS, THE UNIVERSITY OF TEXAS SYSTEM, priority 2014, dated 2024)
